Here are results for one molecule from patent US5430053A, “Isolation and structure of dictyostatin 1” (Arizona Board of Regents acting on behalf of Arizona State …, priority 1994, dated 1995).

For assay [1], the system named is NCI H460 non-small cell lung. The assay can be described thus: NCI panel, NCI H460. Format: cell-based, human. From the text:
(§1) Only two hundred years ago, many diseases ravaged humankind. Many of these diseases now have been controlled or eradicated. In the development of the means to treat or control these diseases, work with the appropriate common experimental animals was of critical importance. With the various types of cancers, and with the HIV virus, such work is presently ongoing. The research for the treatment of various types of cancer is coordinated in the United States by the National Cancer Institute (NCI). NCI, as a government entity, has been charged with assisting, inter alia, anti-cancer research. To determine whether a substance has anti-cancer activity, NCI has established a variety of protocols, one of which involves testing the candidate substance against a cell line panel containing 60 human tumor cell lines. This protocol has been verified and is generally accepted throughout the scientific community. This protocol and the established statistical means of evaluating the results obtained therefrom have been fully described in the literature. See Principles & Practice of Oncology PPO Updates, Volume 3, Number 10, October 1989, by Michael R. Boyd, M.D., Ph.D., for an in depth description of the test protocol. […]

Assay [2] relates to SF-295 CNS. The assay can be described thus: NCI panel, SF-295. Format: cell-based, human.
From the text: as §1

In assay [3] the test system is human cancer cell lines. The assay can be described thus: NCI panel of sixty human cancer cell lines. Format: cell-based. The note with it: for activity against human cancer cell lines (in words): NCI panel. From the text: Only two hundred years ago, many diseases ravaged humankind. Many of these diseases now have been controlled or eradicated. In the development of the means to treat or control these diseases, work with the appropriate common experimental animals was of critical importance. With the various types of cancers, and with the HIV virus, such work is presently ongoing. The research for the treatment of various types of cancer is coordinated in the United States by the National Cancer Institute (NCI). NCI, as a government entity, has been charged with assisting, inter alia, anti-cancer research. To determine whether a substance has anti-cancer activity, NCI has established a variety of protocols, one of which involves testing the candidate substance against a cell line panel containing 60 human tumor cell lines. This protocol has been verified and is generally accepted throughout the scientific community. This protocol and the established statistical means of evaluating the results obtained therefrom have been fully described in the literature. See Principles & Practice of Oncology PPO Updates, Volume 3, Number 10, October 1989, by Michael R. Boyd, M.D., Ph.D., for an in depth description of the test protocol. The statistical analysis of the test protocol is explained in "Display and Analysis of Patterns of Differential Activity of Drugs Against Human Tumor Cell Lines: Development of Means Graph and COMPARE Algorithm" Journal of the National Cancer Institute Reports Vol. 81, No. 14, Pg. 1088, Jul. 14, 1989, by K. D. Paull et al. The context of both of these references is specifically incorporated herein by this reference thereto.

Assay [4] relates to A-498 renal. The assay can be described thus: NCI panel, A-498. Format: cell-based, human.
From the text: as §1

Assay [5] deals with KM 20L2 colon. The assay can be described thus: NCI panel, KM 20L2. Format: cell-based, human.
From the text: as §1

Assay [6] concerns SK-MEL-5 melanoma. The assay can be described thus: NCI panel, SK-MEL-5. Format: cell-based, human.
From the text: as §1

The subject of assay [7] is OVCAR-3 ovarian. The assay can be described thus: NCI panel, OVCAR-3. Format: cell-based, human.
From the text: as §1

In assay [8] the test system is P388 lymphocytic leukemia. The assay can be described thus: P388 lymphocytic leukemia cell line (PS system) growth inhibition. Format: cell-based, murine.

Each structure is given as a SMILES string. Converted amounts (≈) assume the structure as drawn. “Also recorded” adds a separate entry of the source. Read-outs that look alike come from different tables or passages of the source.

On to `C=C/C=C\C(C)C1OC(=O)/C=C\C=C\C(C)C(O)CC(O)/C=C\C(C)C(O)C(C)CC(C)CCC(O)C1C` (stereo not drawn) [dictyostatin 1], for which the “activity against NCI H460 (in words)” value in assay [1] is “active and selective”. Also, in assay [2], the “activity against SF-295 (in words)” value is “active and selective”. In addition, the “activity against human cancer cell lines (in words)” value is “strong cancer cell growth inhibitory properties; also recorded: remarkably potent and specific” in assay [3]; “phenomenally potent (and selective) activity; also recorded: strongly inhibit growth” in assay [3] (listed as Dictyostatin 1). In addition, in assay [3] (ovarian, CNS, renal, lung (non small cell), colon, and melanoma cells), the “NCI data (in words)” value is on record as “extremely positive results”. In addition, the “activity against A-498 (in words)” value in assay [4] was “active and selective”. The “activity against KM 20L2 (in words)” value in assay [5] is “active and selective”. For the same molecule, in assay [6], the “activity against SK-MEL-5 (in words)” value is “active and selective”. Moreover, the “activity against OVCAR-3 (in words)” value in assay [7] is “active and selective”. Besides, the “growth inhibition of murine P388 lymphocytic leukemia (in words)” value in assay [8] was “strongly inhibit growth”; in assay [8] (listed as Dictyostatin 1), “phenomenally potent (and selective) activity; also recorded: strongly inhibit growth”. Moreover, in assay [8] (Mus musculus, P388, pure dictyostatin 1, read-out: P388 ED50), the IC50 came out at 0.38 ng/mL (≈ 0.713 nM).
